# Assay results taken from patent US20230017532A1 (Hoffmann-La Roche Inc., priority 2018, published 2023).
# Structures can show the parent of a compound that is named as a salt.
# Test system: Acinetobacter baumannii ATCC17961
# Assay: Antimicrobial susceptibility testing: 90% growth inhibitory concentration (IC90) determination, Iso-Sensitest broth, OD 600 nm
# Format: cell-based
# Settings: 90% growth inhibitory concentration, Acinetobacter baumannii ATCC17961, Iso-Sensitest broth, OD 600 nm over 16 h; read-out: ATCC 17961 IC90
# Method in brief: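 Growth of bacteria (~5×10^5 CFU/ml, Iso-Sensitest medium, 35±2 °C) was followed by OD at 600 nm at 20-min intervals over 16 h against a 10-point twofold compound series (e.g. 50–0.097 μM final). Concentration giving 90% inhibition in log phase was reported.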
row,Compound,IC90
1,"C#CCNCCCCNC(=O)c1ccc(Nc2nccn3c(-c4ccc(OC)c(F)c4F)cnc23)cc1CC [Example 227, 4-[[3-(2,3-difluoro-4-methoxy-phenyl)imidazo[1,2-a]pyrazin-8-yl]amino]-2-ethyl-N-[4-(prop-2-ynylamino)butyl]benzamide]",30 nM
2,"COc1ccc(-c2cnc3c(Nc4cc(C)c(C(=O)NCCOCCN)c(F)c4)nccn23)c(F)c1F [Example 191, N-[2-(2-amino-ethoxy]-4-[[3-(2,3-difluoro-4-methoxyphenyl)imidazo[1,2-a]pyrazin-8-yl]amino]-2-fluoro-6-methyl-benzamide; hydrochloride]",87 nM
3,"CCc1cc(Nc2nccn3c(-c4cccc(F)c4F)cnc23)ccc1C(=O)NCCOCCN [Example 209, N-[2-(2-amino-ethoxy)ethyl]-4-[[3-(2,3-difluoro-phenyl)imidazo [1,2-a]pyrazin-8-yl]amino]-2-ethyl-benzamide]",330 nM
4,"C#CCNCCCNC(=O)c1ccc(Nc2nccn3c(-c4ccc(OC)c(F)c4F)cnc23)cc1CC [Example 225, 4-((3-(2,3-difluoro-4-methoxyphenyl)imidazo[1,2-a]pyrazin-8-yl)amino)-2-ethyl-N-(3-(prop-2-yn-1-ylamino)propyl) benzamide]",50 nM
5,"CCc1cc(Nc2nccn3c(-c4c(F)cccc4F)cnc23)ccc1C(=O)NCCOCCN [Example 214, N-[2-(2-amino-ethoxy)ethyl]-4-[[3-(2,6-difluorophenyl)imidazo[1,2-a]pyrazin-8-yl]amino]-2-ethyl-benzamide]",950 nM

# Next, values leading:
row,IC90,Compound
1,380 nM,"COc1ccc(-c2cnc3c(Nc4ccc(C(=O)NCCOCCN)c(F)c4)nccn23)c(F)c1F [Example 199, N-(2-(2-amino-ethoxy)ethyl)-4-((3-(2,3-difluoro-4-methoxyphenyl)imidazo[1,2-a]pyrazin-8-yl)amino)-2-fluorobenzamide]"
2,230 nM,"COc1ccc(-c2cnc3c(Nc4cc(C)c(C(=O)NCCOCCOCCN)c(F)c4)nccn23)c(F)c1F [Example 208, N-(2-(2-(2-aminoethoxy)ethoxy)ethyl)-4-((3-(2,3-difluoro-4-methoxyphenyl)imidazo[1,2-a]pyrazin-8-yl)amino)-2-fluoro-6-methyl-benzamide dihydrochloride]"
3,880 nM,"COc1ccc(-c2cnc3c(Nc4ccc(C(=O)NCCOCCN)c(F)c4F)nccn23)c(F)c1F [Example 63, N-(2-(2-aminoethoxy)ethyl)-4-((3-(2,3-difluoro-4-methoxy-phenyl)imidazo [1,2-a]pyrazin-8-yl)amino)-2,3-difluoro-benzamide]"

# Same assay, conditions: Acinetobacter baumannii, ATCC17961, 16 h, read-out: ATCC 17961 IC90
row,Compound,IC90
1,"CCc1cc(Nc2nccn3c(-c4ccc(OC)c(F)c4F)cnc23)ccc1C(=O)NCCOCCN(C)CC(=O)NS(C)(=O)=O [Example 66, 4-((3-(2,3-difluoro-4-methoxyphenyl)imidazo[1,2-a]pyrazin-8-yl)amino)-2-ethyl-N-(2-(2-(methyl(2-(methylsulfonamido)-2-oxoethyl)amino)ethoxy)ethyl)benzamide dihydrochloride]",370 nM
